Experimental data from patent publication US12570695B2, “Bicyclic peptide ligands specific for EphA2” (priority 2019, dated 2026).
Starred links: 1 amine or outer side, 2 acyl side, 3 side chain; linkers in the order of their positions; H or OH if unused. Positions of bridges follow the written chain, without caps; N, C: chain ends. Non-standard residues stand in square brackets, D forms with d. Residues, ends and D or L forms follow the SMILES beside them. X5 = O=C(CCSCCN[*:3])N1CN(C(=O)CC[*:1])CN(C(=O)CC[*:2])C1; TATA = O=C(CC[*:1])N1CN(C(=O)CC[*:2])CN(C(=O)CC[*:3])C1; Dip = N[C@H](C(=O)O)C(c1ccccc1)c1ccccc1; Hyp = O=C(O)[C@@H]1C[C@@H](O)CN1; hArg = N=C(N)NCCCC[C@H](N)C(=O)O; Aad = N[C@@H](CCCC(=O)O)C(=O)O

Target: human EphA2 (Homo sapiens, UniProt P29317)
Sequence (P29317 24-976): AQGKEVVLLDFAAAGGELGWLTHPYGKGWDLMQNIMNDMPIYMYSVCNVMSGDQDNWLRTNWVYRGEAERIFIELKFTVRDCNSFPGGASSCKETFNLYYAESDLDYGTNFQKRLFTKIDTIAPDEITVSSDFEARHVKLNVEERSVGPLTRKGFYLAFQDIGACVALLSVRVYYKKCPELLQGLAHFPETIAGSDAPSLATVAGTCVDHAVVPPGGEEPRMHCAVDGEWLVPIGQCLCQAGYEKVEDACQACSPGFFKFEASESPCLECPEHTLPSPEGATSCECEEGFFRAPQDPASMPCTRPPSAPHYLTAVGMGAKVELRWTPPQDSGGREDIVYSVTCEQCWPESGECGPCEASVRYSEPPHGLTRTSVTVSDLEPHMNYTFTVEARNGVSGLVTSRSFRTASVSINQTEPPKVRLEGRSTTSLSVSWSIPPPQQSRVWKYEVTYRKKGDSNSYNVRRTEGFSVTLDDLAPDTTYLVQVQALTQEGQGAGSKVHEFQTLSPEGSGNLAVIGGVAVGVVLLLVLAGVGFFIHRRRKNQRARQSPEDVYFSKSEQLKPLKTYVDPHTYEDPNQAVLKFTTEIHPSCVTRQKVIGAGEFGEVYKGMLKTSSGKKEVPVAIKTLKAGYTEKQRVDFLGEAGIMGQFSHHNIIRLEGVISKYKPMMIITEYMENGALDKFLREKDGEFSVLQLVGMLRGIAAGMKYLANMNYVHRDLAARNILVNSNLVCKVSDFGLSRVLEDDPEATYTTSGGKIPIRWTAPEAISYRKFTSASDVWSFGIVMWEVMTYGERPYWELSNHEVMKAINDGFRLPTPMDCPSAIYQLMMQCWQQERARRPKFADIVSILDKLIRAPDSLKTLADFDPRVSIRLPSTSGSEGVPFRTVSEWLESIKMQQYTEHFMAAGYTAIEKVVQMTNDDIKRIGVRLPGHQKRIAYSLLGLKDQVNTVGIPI
Assay: biochemical
Procedure: Peptides without a fluorescent tag were tested in competition with a peptide with a fluorescent tag and a known Kd.
Peptides were diluted to an appropriate concentration in assay buffer as described in the direct binding assay with a maximum of 5% DMSO, then serially diluted 1 in 2. […] Measurements were conducted, however the gain was determined prior to the first measurement. Data analysis was in Systat Sigmaplot version 12.0 where the mP values were fit to a user defined cubic equation to generate a Ki value:
“Lig”, “KLig” and “Prot” were all defined values relating to: fluorescent peptide concentration, the Kd of the fluorescent peptide and EphA2 concentration respectively.

Going from `CC(C)C[C@@H]1NC(=O)[C@@H]2CSCCC(=O)N3CN(CN(C3)C(=O)CCSC[C@H](NC(=O)[C@H](CC(=O)O)NC(=O)[C@H](CCCCNC(=N)N)NC(=O)[C@H](C)N)C(=O)N3C[C@H](O)C[C@H]3C(=O)N[C@@H](CCCC(=O)O)C(=O)N[C@@H](C(C)C)C(=O)N[C@@H](CC(N)=O)C(=O)N3CCC[C@H]3C(=O)N[C@@H](CC(C)C)C(=O)N2)C(=O)CCSC[C@@H](C(N)=O)NC(=O)[C@H](CCCCNC(=N)N)NC(=O)[C@H](Cc2c[nH]c3ccccc23)NC(=O)[C@@H](CC(=O)O)NC(=O)[C@@H]2CCCN2C(=O)[C@H](Cc2c[nH]cn2)NC1=O` [BCY13130, A-[HArg]-D-Ci[HyP][hGlu]VNPLCiiLHP[dD]W[HArg]Ciii] (H-A[hArg]DC[Hyp][Aad]VNPLCLHP[dD]W[hArg]C-NH2; linker 4-11-18 via TATA; N-terminus and C-terminus assumed) to `CC(C)C[C@@H]1NC(=O)[C@@H]2CSCCC(=O)N3CN(CN(C3)C(=O)CCSC[C@H](NC(=O)[C@H](CC(=O)O)NC(=O)[C@H](CCCCNC(=N)N)NC(=O)[C@H](C)N)C(=O)N3C[C@H](O)C[C@H]3C(=O)N[C@@H](CC(C)C)C(=O)N[C@@H](C(C)C)C(=O)N[C@@H](CC(N)=O)C(=O)N3CCC[C@H]3C(=O)N[C@@H](CC(C)C)C(=O)N2)C(=O)CCSCCNC(=O)[C@H](CCCCNC(=N)N)NC(=O)[C@H](Cc2c[nH]c3ccccc23)NC(=O)[C@@H](CC(=O)O)NC(=O)[C@@H]2CCCN2C(=O)[C@H](Cc2c[nH]cn2)NC1=O` [BCY13133, A[HArg]DCi[HyP]LVNPLCiiLHP[dD]W[HArg][Cysam]iii] (H-A[hArg]DC[Hyp]LVNPLCLHP[dD]W[hArg]; linker 4-11-C via X5; N-terminus assumed), the Ki falls from 7.8 nM to 3.24 nM (2.4-fold).

Compared with `CC(C)C[C@@H]1NC(=O)[C@@H]2CSCCC(=O)N3CN(CN(C3)C(=O)CCSC[C@H](NC(=O)[C@H](CC(=O)O)NC(=O)[C@H](CCC(=O)O)NC(=O)[C@@H](C)N)C(=O)N3C[C@H](O)C[C@H]3C(=O)N[C@@H](CC(C)C)C(=O)N[C@@H](C(C)C)C(=O)N[C@@H](CC(N)=O)C(=O)N3CCC[C@H]3C(=O)N[C@@H](CC(C)C)C(=O)N2)C(=O)CCSC[C@@H](C(N)=O)NC(=O)[C@H]([C@@H](C)O)NC(=O)[C@H](Cc2c[nH]c3ccccc23)NC(=O)[C@@H](CC(=O)O)NC(=O)[C@@H]2CCCN2C(=O)[C@H](CCC(=O)O)NC1=O` [BCY13126, [dA]-ED-Ci[HyP]LVNPLCiiLEP[dD]WTCiii] (H-[dA]EDC[Hyp]LVNPLCLEP[dD]WTC-NH2; linker 4-11-18 via TATA; N-terminus and C-terminus assumed), `CC(C)C[C@@H]1NC(=O)[C@@H]2CSCCC(=O)N3CN(CN(C3)C(=O)CCSC[C@H](N)C(=O)N3C[C@H](O)C[C@H]3C(=O)N[C@@H](CC(C)C)C(=O)N[C@@H](C(C)C)C(=O)N[C@@H](CC(N)=O)C(=O)N3CCC[C@H]3C(=O)N[C@@H](CC(C)C)C(=O)N2)C(=O)CCSC[C@@H](C(N)=O)NC(=O)[C@H]([C@@H](C)O)NC(=O)[C@H](Cc2c[nH]c3ccccc23)NC(=O)[C@@H](CC(=O)O)NC(=O)[C@@H]2CCCN2C(=O)[C@H](C(c2ccccc2)c2ccccc2)NC1=O` [BCY12860, Ci[HyP]LVNPLCiiL[3,3-DPA]P[dD]WTCiii] (H-C[Hyp]LVNPLCL[Dip]P[dD]WTC-NH2; linker 1-8-15 via TATA; N-terminus and C-terminus assumed) is 38-fold lower in Ki: 25.3 nM for the first, 0.66 nM for the second. The second binds more tightly here.
